Results reported in patent US9371265B2, “Compositions and methods related to inhibitors of JAK kinase” (EP PHARMA, INC., priority 2012, dated 2016).

Columns and labels:
PARP = PARP cleavage in SU-DHL-1 cells (Luminex multiplex); type: cell-based, human; conditions: 24 hours, dose-dependent
Method: (§1) FIGS. 7A-7C. EP009 reduces ALCL cell viability through induction of caspase 3 mediated apoptosis. (A) SUP-M2, SU-DHL-1 or H2228 cells were cultured with increasing amounts of EP009 (0-10 μM) for 72 hours and cell viability measured with the MTS tetrazolium salt assay. Values represent mean absorbance (OD490-OD650 nm) normalized to vehicle (PBS) treated control cells, while error bars represent the standard deviation (n=3). (B) SU-DHL-1 cells were treated with vehicle (PBS) or increasing amounts of EP009 (0-50 μM) for 24 hours. Cells were then lysed, clarified, and subjected to Luminex multiplex analysis to detect activated caspase 3 and (C) cleaved PARP. Values represent MFI normalized to corresponding GAPDH MFI, while error bars represent the standard deviation (n=2). Representative data from three independent experiments are shown. Statistical significance was determined using Student's t-test. (*, p<0.05).
The MILLIPLEX MAP 8-plex Multi-Pathway Signaling Phosphoprotein kit (Millipore) was used to detect phosphorylated ERK1/2 (Thr185/Tyr187), STAT3 (Ser727), JNK1/2 (Thr183/Tyr185), p70 S6 kinase (Thr412), IκBα (Ser32), STAT5A/B (Tyr694/699), CREB (Ser133), and p38 (Thr180/Tyr182). The MILLIPLEX MAP 5-plex STAT Phosphoprotein kit (Millipore) was used to detect phosphorylated STAT1 (Tyr701), STAT2 (Tyr690), STAT3 (Tyr705), STAT5A/B (Tyr694/699), and STAT6 (Tyr641). […]

PIK3C2B = PIK3C2B (Homo sapiens, UniProt O00750); assay: Kinase panel: PIK3C2B; type: biochemical; conditions: 10 μM EP009
Method: (§2) Achieving JAK3 selectivity remains a significant challenge in the development of new small molecules for the treatment of cancer and immune-derived diseases. As such, the inventors employed cell-based screening assays of small-molecule libraries based upon the chemical scaffold of the established JAK3 inhibitor NC1153 (Stepkowski et al., J Immunol. (2005), 175(7):4236-4246) EP009 (FIG. 2A) was selected as a lead compound due to improved intrinsic stability (>95% purity in various solvents at 37° C. for 24 hours; FIG. 3) and high-degree of JAK3 selectivity. To test JAK3 versus JAK2 specificity of EP009, the IL-2/JAK3-dependent Kit225, and IL-3/JAK2-dependent BaF/3 cell lines were used. Kit225 and BaF/3 cells growing in the presence of IL-2 or IL-3, respectively, were treated with ascending concentrations of EP009 for 12 hours and cellular JAK3 and JAK2 tyrosine phosphorylation levels detected by Western blot analysis (FIGS. 2B and 2C). Following densitometric analysis, EP009 was determined to dose-dependently reduce IL-2-mediated JAK3 tyrosine phosphorylation with a cellular 50% inhibitory concentration (IC50) between 10 and 20 μM (FIG. 2B). […] To globally evaluate specificity, the inhibitory activity of EP009 was measured against a panel of protein kinases distributed throughout the kinome using the scanEDGE profiling service (KINOMEscan). […]

PCTK1 = PCTK1 (Homo sapiens, UniProt Q00536); assay: Kinase panel: PCTK1; type: biochemical; conditions: 10 μM EP009
Method: as §2

BMPR2 = BMPR2 (Homo sapiens, UniProt Q13873); assay: Kinase panel: BMPR2; type: biochemical; conditions: 10 μM EP009
Method: as §2

CDK3 = CDK3 (Homo sapiens, UniProt Q00526); assay: Kinase panel: CDK3; type: biochemical; conditions: 10 μM EP009
Method: as §2

PRKCE = PRKCE (Homo sapiens, UniProt Q02156); assay: Kinase panel: PRKCE; type: biochemical; conditions: 10 μM EP009
Method: as §2

MAP3K4 = MAP3K4 (Homo sapiens, UniProt Q9Y6R4); assay: Kinase panel: MAP3K4; type: biochemical; conditions: 10 μM EP009
Method: as §2

ABL1-phosphorylated = ABL1-phosphorylated (Homo sapiens, UniProt P00519); assay: Kinase panel: ABL1-phosphorylated; type: biochemical; conditions: 10 μM EP009
Method: as §2

[1] = LD50 / acute safety, intravenous tail vein injection; type: in vivo; conditions: mice, IV bolus
Method: Mice were dosed using EP009 (-P) by intravenous tail vein injection. 25 mice were divided into groups of 5 and given doses of 2.0 mg (group B), 4.0 mg (group C), 6.0 mg (group D), and 8.0 mg (group E) of EP009, along with a placebo control (group A), in a volume of […]. This corresponded to doses of 100, 200, 300, 400 mg/kg, and 0 mg/kg (control). Dosing began at 3:15 p.m., and began with the highest dose group, followed by 6, 4, 2, and the control group. Dosing took around 15 minutes.

KIT(V559D, T670I) = KIT(V559D, T670I) (Homo sapiens, UniProt P10721, T670I/V559D); assay: Kinase panel: KIT(V559D, T670I); type: biochemical; conditions: 10 μM EP009
Method: as §2

[2] = target: ABL1(E255K)-phosphorylated (Homo sapiens, UniProt P00519, E255K); assay: Kinase panel: ABL1(E255K)-phosphorylated; type: biochemical; conditions: 10 μM EP009
Method: as §2

H2228 = H2228 cell viability (MTS); type: cell-based, human; conditions: 0-10 μM, 72 hours
Method: as §1
Cell viability was assessed with 3-(4,5-dimethylthiazol-2-yl)-5-(3-carboxymethoxyphenyl)-2-(4-sulfophenyl)-2H-tetrazolium salt (MTS) reagent (Promega) in triplicates according to the manufacturer's instructions. Three independent experiments were performed. The error bars represent standard deviation.

Chain of PRKCE (Q02156 whole entry): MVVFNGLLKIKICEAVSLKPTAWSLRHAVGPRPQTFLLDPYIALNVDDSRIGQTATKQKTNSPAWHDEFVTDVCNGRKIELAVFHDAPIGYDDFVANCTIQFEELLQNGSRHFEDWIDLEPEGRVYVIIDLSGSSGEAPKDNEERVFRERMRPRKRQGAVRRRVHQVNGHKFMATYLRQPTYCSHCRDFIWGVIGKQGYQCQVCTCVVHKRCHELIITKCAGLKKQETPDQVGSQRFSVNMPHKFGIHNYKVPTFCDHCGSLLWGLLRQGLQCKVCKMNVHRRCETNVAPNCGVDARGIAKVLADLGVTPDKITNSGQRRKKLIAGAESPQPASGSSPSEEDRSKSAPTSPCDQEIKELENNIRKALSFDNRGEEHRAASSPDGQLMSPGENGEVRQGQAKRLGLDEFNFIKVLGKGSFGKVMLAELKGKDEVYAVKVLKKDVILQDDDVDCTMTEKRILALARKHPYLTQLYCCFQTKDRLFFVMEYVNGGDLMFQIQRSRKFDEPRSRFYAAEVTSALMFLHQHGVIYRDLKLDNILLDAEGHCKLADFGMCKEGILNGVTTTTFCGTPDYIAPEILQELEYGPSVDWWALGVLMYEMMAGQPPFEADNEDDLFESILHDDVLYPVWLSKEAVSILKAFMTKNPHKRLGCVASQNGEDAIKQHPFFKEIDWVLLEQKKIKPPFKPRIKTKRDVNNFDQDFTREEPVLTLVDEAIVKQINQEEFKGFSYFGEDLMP
Chain of ABL1-phosphorylated (P00519 whole entry): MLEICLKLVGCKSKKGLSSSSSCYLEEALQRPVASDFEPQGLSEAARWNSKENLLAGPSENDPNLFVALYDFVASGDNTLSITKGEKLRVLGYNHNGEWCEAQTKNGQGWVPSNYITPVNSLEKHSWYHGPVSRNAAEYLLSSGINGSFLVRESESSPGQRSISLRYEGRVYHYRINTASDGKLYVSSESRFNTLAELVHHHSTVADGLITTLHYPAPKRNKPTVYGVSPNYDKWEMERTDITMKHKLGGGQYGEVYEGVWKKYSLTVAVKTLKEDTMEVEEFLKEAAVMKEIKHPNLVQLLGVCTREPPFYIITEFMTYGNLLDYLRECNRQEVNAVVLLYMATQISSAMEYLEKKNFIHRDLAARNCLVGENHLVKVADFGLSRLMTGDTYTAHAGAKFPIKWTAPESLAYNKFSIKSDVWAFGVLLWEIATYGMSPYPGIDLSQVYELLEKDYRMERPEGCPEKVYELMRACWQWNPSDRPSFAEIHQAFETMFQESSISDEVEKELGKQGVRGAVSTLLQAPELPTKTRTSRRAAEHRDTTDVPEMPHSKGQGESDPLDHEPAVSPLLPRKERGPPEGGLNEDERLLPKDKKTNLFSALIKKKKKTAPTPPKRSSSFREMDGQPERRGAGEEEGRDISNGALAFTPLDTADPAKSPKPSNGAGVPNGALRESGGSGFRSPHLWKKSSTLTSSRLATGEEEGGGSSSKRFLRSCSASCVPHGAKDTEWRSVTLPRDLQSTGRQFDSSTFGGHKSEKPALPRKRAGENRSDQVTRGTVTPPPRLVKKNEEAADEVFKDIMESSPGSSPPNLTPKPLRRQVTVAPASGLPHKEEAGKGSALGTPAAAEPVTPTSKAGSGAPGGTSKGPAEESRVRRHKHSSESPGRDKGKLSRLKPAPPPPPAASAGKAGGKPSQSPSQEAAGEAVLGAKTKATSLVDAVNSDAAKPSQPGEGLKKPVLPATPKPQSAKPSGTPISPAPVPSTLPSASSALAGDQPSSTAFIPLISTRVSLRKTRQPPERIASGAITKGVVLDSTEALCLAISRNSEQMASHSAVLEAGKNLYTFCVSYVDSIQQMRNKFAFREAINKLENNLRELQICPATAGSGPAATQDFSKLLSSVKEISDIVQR
Chain of PIK3C2B (O00750 whole entry): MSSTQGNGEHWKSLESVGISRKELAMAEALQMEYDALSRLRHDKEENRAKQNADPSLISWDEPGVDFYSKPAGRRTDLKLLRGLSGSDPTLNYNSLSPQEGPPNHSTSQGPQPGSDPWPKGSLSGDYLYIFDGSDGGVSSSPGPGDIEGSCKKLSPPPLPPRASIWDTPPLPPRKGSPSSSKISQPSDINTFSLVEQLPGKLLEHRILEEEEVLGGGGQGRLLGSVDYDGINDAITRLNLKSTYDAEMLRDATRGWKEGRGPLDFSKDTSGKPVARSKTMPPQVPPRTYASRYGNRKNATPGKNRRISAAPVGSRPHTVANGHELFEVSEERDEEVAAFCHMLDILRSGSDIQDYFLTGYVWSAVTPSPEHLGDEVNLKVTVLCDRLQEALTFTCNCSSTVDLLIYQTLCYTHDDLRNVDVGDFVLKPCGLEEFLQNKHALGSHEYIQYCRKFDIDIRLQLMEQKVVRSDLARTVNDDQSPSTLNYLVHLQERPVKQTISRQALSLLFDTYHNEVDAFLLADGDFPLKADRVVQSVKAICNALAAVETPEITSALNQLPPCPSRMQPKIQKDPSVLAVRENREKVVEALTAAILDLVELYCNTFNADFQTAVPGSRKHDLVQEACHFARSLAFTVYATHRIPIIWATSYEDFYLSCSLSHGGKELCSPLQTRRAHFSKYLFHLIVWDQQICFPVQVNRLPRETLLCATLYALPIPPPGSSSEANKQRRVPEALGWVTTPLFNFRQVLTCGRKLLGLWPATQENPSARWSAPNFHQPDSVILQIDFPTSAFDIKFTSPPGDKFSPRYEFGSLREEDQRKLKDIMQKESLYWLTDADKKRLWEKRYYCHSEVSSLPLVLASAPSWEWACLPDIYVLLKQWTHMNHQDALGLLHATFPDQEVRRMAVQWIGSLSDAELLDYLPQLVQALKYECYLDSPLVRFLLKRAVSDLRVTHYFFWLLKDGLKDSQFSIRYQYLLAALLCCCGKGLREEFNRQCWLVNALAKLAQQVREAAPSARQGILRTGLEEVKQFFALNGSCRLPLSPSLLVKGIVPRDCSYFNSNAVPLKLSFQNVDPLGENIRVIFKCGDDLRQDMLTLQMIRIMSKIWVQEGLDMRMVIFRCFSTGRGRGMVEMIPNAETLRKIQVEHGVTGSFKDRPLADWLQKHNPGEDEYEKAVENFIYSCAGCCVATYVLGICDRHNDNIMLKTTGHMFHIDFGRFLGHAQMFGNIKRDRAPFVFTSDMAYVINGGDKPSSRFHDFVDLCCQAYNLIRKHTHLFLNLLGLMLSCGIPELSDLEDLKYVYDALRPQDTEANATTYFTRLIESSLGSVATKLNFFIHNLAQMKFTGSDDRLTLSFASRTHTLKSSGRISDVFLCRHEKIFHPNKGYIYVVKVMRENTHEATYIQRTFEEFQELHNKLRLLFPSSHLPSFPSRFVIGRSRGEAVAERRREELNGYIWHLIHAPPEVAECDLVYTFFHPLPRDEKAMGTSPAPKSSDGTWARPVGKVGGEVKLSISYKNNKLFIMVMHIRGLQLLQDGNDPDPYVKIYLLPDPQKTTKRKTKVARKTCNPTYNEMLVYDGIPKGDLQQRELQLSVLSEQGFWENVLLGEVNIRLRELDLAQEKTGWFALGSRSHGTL
Chain of KIT(V559D, T670I) (P10721 26-976 V559D/T670I): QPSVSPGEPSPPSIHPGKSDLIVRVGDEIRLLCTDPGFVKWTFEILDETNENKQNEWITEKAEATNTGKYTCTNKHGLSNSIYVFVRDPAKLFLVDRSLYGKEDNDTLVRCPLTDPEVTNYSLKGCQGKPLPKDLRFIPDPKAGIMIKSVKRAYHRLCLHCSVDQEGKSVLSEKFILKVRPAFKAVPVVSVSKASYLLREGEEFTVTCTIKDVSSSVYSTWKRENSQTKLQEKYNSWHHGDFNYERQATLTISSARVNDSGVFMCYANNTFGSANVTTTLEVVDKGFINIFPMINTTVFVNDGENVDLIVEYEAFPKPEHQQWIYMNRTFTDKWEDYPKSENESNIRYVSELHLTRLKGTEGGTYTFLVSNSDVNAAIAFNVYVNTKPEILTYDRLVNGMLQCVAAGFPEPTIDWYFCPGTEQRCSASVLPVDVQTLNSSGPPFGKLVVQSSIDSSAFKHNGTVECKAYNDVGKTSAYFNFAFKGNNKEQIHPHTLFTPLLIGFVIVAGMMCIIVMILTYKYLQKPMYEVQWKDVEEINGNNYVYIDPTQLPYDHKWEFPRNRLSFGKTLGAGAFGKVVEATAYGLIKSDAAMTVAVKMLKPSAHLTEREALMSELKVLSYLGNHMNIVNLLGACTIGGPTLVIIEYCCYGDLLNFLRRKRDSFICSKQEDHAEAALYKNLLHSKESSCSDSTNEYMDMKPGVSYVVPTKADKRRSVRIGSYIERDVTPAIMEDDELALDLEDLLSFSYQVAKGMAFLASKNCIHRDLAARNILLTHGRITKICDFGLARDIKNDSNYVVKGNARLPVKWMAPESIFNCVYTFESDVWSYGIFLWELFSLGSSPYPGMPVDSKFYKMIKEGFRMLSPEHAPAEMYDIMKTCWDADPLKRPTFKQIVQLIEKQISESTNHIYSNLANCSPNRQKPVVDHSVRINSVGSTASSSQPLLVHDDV
Chain of PCTK1 (Q00536 whole entry): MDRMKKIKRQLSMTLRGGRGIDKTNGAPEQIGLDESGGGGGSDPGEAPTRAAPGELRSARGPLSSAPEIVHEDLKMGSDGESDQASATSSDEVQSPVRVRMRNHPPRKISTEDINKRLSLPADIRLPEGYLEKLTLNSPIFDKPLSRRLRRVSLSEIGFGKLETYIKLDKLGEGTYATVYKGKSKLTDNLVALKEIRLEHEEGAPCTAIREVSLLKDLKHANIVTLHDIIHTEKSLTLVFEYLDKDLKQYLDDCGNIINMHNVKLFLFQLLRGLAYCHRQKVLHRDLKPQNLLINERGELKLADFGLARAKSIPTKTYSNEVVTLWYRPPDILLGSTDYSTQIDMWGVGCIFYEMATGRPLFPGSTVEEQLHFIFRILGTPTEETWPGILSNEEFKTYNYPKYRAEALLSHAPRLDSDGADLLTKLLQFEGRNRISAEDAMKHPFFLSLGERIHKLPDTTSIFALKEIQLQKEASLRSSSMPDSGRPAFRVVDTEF
Chain of ABL1(E255K)-phosphorylated (P00519 whole entry E255K): as the sequence (P00519 whole entry) above, with E255K counted along it

## C=C1CCCCCCCCCC(CO)C1=O (stereo not drawn) [EP009, 2-(Hydroxymethyl)-12-methylenecyclododecanone]
PARP
  PARP cleavage: increased
PIK3C2B
  Kinase Activity (% of Control): 70 % of Control
PCTK1
  Kinase Activity (% of Control): 85 % of Control
BMPR2
  Kinase Activity (% of Control): 75 % of Control
CDK3
  Kinase Activity (% of Control): 100 % of Control
PRKCE
  Kinase Activity (% of Control): 100 % of Control
MAP3K4
  Kinase Activity (% of Control): 87 % of Control
ABL1-phosphorylated
  Kinase Activity (% of Control): 100 % of Control
[1]
  dose limiting safety in vivo: 200 to 300 mg/kg
KIT(V559D, T670I)
  Kinase Activity (% of Control): 94 % of Control
[2]
  Kinase Activity (% of Control): 64 % of Control
H2228
  effect on H2228 cell viability: no effect
